Tests used:
[1] = system: T668 phosphorylation on APP; experiment: Ionomycin-induced T668 phosphorylation of APP in primary hippocampal neurons, Western blot; type: cell-based, rat; settings: for T668 phosphorylation induced by ionomycin: 20 μM inhibitor 15 min before 4 μM ionomycin for 5 hours
Experimental: Primary hippocampal neurons were cultured as described from E18 rat embryos (Niethammer et al. (2000) Neuron 28:697). 8-day old cultures were treated with different concentrations of ionomycin (Calbiochem). In some cases, hippocampal neurons were incubated with either 20 μM roscovitine (Calbiochem) or 20 μM butyrolactone (Calbiochem) for 15 min at 37° C. before being treated with 4 μM ionomycin for 5 hours. Neurons were lysed in SDS sample buffer and lysates were separated on a 12% acrylamide gel and analyzed by Western blotting.
To determine if neurotoxic conditions influence APP phosphorylation, primary hippocampal neurons were treated with ionomycin.

rat cortical neurons = experiment: MTT cell viability of rat cortical neurons expressing WT APP; type: cell-based; settings: rat cortical neurons expressing WT APP via HSV
[2] = system: secreted Aβ(1-40) and Aβ(1-42); experiment: Aβ secreted by rat primary cortical neurons infected with HSV expressing WT APP, sandwich ELISA; type: cell-based; settings: rat cortical neurons expressing WT APP via HSV, inhibitor 8 hours, dose-dependent, P<0.05
[3] = system: T668 phosphorylation of APP; experiment: T668 phosphorylation of full length APP in HSV-APP infected rat cortical neurons, Western blot; settings: rat cortical neurons expressing WT APP via HSV, inhibitor 8 hours
[4] = system: secreted Aβ(1-40) and Aβ(1-42); experiment: Aβ secreted into media by primary neurons from APP(Sw) Tg mice, sandwich ELISA; type: cell-based, mouse; settings: roscovitine 8 hours
Experimental: FIGS. 7A-7F depict that inhibition of Cdk5 reduces Aβ generation in a Tg mouse model of AD. (A) Inhibition of Cdk5 lead to a decrease in Aβ secretion. Primary mixed hippocampal and cortical neurons were cultured from E17 APP (Swedish) (Sw) Tg mice. 4-day-cultured neurons were treated with the indicated concentration of roscovitine for 8 hours and assayed for the level of Aβ(1-40) secreted into the media. The level of secreted Aβ(1-40) was normalized against the untreated control. The data are the averages (±s.d.) from four independent experiments. (B) As in (A), but the level of Aβ(1-42) in the media was assayed instead. (C) Cell viability was measured using the MTT assay. Cell viability was normalized against the untreated control. […] (F) Cell viability was measured using the MTT assay.
Primary cortical neurons were cultured from E15 APP(Sw) Tg mice (Tg2576) (Hsiao et al. (1996) Science 274:99) as described (Niethammer et al. (2000) Neuron 28:697). […] Aβ secreted into the media from each culture was analyzed by sandwich ELISA (Biosource) according to specifications by the manufacturer. Cell viability was measured by treating neurons with MTT (Sigma) at a final concentration of 0.5 mg/ml for 1 hour. After MTT treatment, cell medium was replaced with DMSO and the optical density of at 495 nm was determined.

[5] = system: primary neurons from APP(Sw) Tg mice; experiment: MTT cell viability of primary neurons from APP(Sw) Tg mice; type: cell-based, mouse; settings: roscovitine 8 hours
Experimental: Primary cortical neurons were cultured from E15 APP(Sw) Tg mice (Tg2576) (Hsiao et al. (1996) Science 274:99) as described (Niethammer et al. (2000) Neuron 28:697). 4-day-cultured neurons were replaced with new media (DMEM/F 12) and treated with different concentrations of roscovitine (Calbiochem) for 8 hours, or with butyrolactone (Calbiochem) for 16 hours. Aβ secreted into the media from each culture was analyzed by sandwich ELISA (Biosource) according to specifications by the manufacturer. Cell viability was measured by treating neurons with MTT (Sigma) at a final concentration of 0.5 mg/ml for 1 hour. After MTT treatment, cell medium was replaced with DMSO and the optical density of at 495 nm was determined.

[6] = system: APP subcellular distribution; experiment: Distribution of WT APP in iodixanol step gradient of primary cortical neuron homogenates; type: cell-based, rat; settings: roscovitine 15 μM for 8 hr (FIG. 18D)
From the text: FIGS. 18A-18D depict co-fractionation of T668 phosphorylated APP with BACE1 and endosome markers. (A) Adult mouse brain lysate was fractionated through an iodixanol step gradient. […] (B) Quantification of protein distribution of A (fractions 1-20) showing that full length P-APP co-fractionates with BACE1. (C) Distribution of WT and T668A APP, expressed in rat primary cortical neurons using recombinant herpes simplex virus (HSV), in an iodixanol step gradient. The distribution pattern of BACE1 resembled that of WT APP. (D) Distribution of WT APP in an iodixanol step gradient after roscovitine treatment (15 μM for 8 hr).
FIGS. 25A-25B depict immunoblots showing distribution of APP and BACE1 in iodixanol step gradient. […] Twenty hours post infection, cell homogenates were fractionated through an iodixanol step gradient and the distributions of APP and BACE1 were analyzed. […] Cell homogenates were fractionated and the distributions of APP and BACE1 were analyzed by Western blot analysis.
To assess the significance of T668 phosphorylation in APP subcellular localization, WT APP and the T668A mutant APP were introduced into primary cortical neurons using recombinant herpes simplex virus (HSV). Twenty hours post infection, cell homogenates were fractionated through iodixanol step gradient and the distribution of APP in the collected fractions was analyzed. […]

Row | SMILES | T668 phosphorylation on APP ([1]; primary hippocampal neurons treated with ionomycin) | cell viability, MTT assay (rat cortical neurons) | levels of secreted Aβ(1-40) [2] | levels of secreted Aβ(1-42) [2] | T668 phosphorylation induced by ionomycin [1] | T668 phosphorylation [3] | secreted beta-amyloid (1-40) (Aβ(1-40)) levels [4] | secreted beta-amyloid (1-42) (Aβ(1-42)) levels [4] | cell viability, MTT assay [5] | APP distribution in iodixanol step gradient [6]
1 | C[C@H](CCC(=O)O)C[C@H](C)C[C@H](C)C(=O)/C=C(\O)[C@H](C)C[C@H](C)C/C=C/[C@@H](C)[C@@H](O)[C@@H](C)[C@@H](O)C[C@@H]1CC[C@@](C)([C@H]2CC[C@@](C)([C@@H](C)O)O2)O1 [Ionomycin, ionomycin] | marked elevation |  |  |  |  |  |  |  |  | 
2 | O=C1CCCO1 [butyrolactone] |  | not due to a decline in cell viability | significantly reduced | significantly reduced | inhibited | substantial decreases |  |  |  | 
3 | CC[C@H](CO)Nc1nc(NCc2ccccc2)c2ncn(C(C)C)c2n1 [roscovitine] |  | not due to a decline in cell viability | significantly reduced | significantly reduced | inhibited | substantial decreases | dose-dependent decrease | also reduced | not due to a decline in cell viability | shifted to heavier membrane fractions

Reference: patent US7250551B2, “Transgenic mice expressing inducible human p25” (President and Fellows of Harvard College, priority 2002, dated 2007)
